Source: patent publication US20190298717A1 (BOARD OF REGENTS, THE UNIVERSITY OF TEXAS SYSTEM, priority 2016, published 2019)

What was measured:
[1] = tested on: Nrf2
Description: The inventors quantified Nrf2 protein in treated cells as a first step towards validating the prediction of the Nrf2 pathway.
Nrf2 phosphorylation on serine 40 is a regulatory modification required for Nrf2 translocation to nucleus and downstream protein activation.
(§1) Western Blot Analysis. Protein expression was determined by Western blot analysis. Equal amount of protein from each sample was run in Tris-glycine SDS PAGE gel, followed by transferring to PVDF membrane. After blocking the membrane with 5% milk for 1 hour at room temperature, the membrane was incubated further for 2 hours with antibodies specific for target proteins: Nrf2, pNrf2(S40) from Novus (Littleton, Colo.); Keap1, HO-1, NQO1, GCLc, GCLm and lamin B1 from Cell Signaling (Danvers, Mass.); GAPDH from Santa Cruz (Dallas, Tex.); β-Actin from Thermo Fisher (Waltham, Mass.). The membrane was subsequently incubated with species-specific HRP-conjugated secondary antibody followed by incubation with chemiluminescence substrate and imaging. The band intensity of each of the target proteins was quantified using ImageQuant software (GE Healthcare, Sweden). Western blot analysis on worm lystaes was done similarly. […] Equal amounts of protein were run on the gel and SKN-1 protein level was detected using anti-GFP antibody.
Cell Fractionation. Nuclear and cytoplasmic fractions were separated using the protocol and NE-PER Nuclear and Cytoplasmic Extraction Reagents provided by […]. Briefly, the cells were harvested and washed with ice-cold PBS buffer. The cells were resuspended in ice-cold CER-I buffer and incubated on ice for 10 minutes, followed by addition of CER-II buffer and incubation for one more minute on ice. The lysate was centrifuged at 16,000 g for 5 minutes. The supernatant was the cytoplasmic fraction. The pellet obtained was lysed in ice-cold NER buffer to obtain nuclear protein fractions.

[2] = tested on: HEK293 overexpressing mutated tau-RD (P301L/V337M), Clone 9; conditions: 10 μM, 48 h
Description: Two monoclonal cell lines of HEK293 overexpressing mutated tau-RD (repetitive domain; P301L/V337M) were selected; 1) Clone 1: used as control expressing truncated tau from amino acid 244 to 372, with P301L/V337M mutations which produces soluble non-toxic tau, and 2) Clone 9: which generates an aggregated form of tau (11). Three parameters were measured: cell viability, NAD, and ATP content.

[3] = tested on: C. elegans
Description: The inventors also evaluated locomotion in worms to investigate the health of the rescued animals.
Locomotion Assays. To measure locomotion, worms were subjected to 30 seconds video recording on a Zeiss Axio Zoom. V16 fluorescence dissecting microscope equipped with Axiocam 503 and ZEN2 software. Bending rate (the number of body-bends-per-seconds) was measured by placing live animals on a plate containing M9 buffer, filming for 30 seconds and counting the number of bends. Healthiness of the worms was measured by their bending rate of young, middle aged and aged animals. […] The results were obtained from 3 individual trials.

[4] = tested on: SKN-1
Description: as §1

[5] = tested on: Nrf2 and HO-1
Description: (§2) The inventors first measured the cell proliferation to evaluate the stress caused by expression of tau fibrils in aggregate-positive and negative cells (FIG. 6A). […] The inventors also measured the concentration of superoxide ions (O2-), a detrimental byproduct of oxidative phosphorylation, as an ROS representative. […] The inventors next measured expression of Nrf2 and HO-1 in the same cells (FIG. 6C). […] Aggregate-positive and -negative KD cells were treated with 200 μM H2O2 for 24 h. Cytotoxicity was measured as release of LDH.
as §1

[6] = tested on: HEK293 tau aggregate-negative and aggregate-positive cells
Description: as §2
Measurement of Reactive Oxygen Species. Superoxide concentration was measured by dihydroethidium (DHE). Black clear bottom 96 well plates were seeded with about 5000 HEK293 tau aggregate-negative (control) and aggregate-positive model cells per well and about 20000 SH-SY5Y cells (the NRF2 knockdown of both cell lines were also seeded). […] Fluorescence was measured by Spectramax Gemini XPS plate reader (Molecular Devices, Sunnyvale, Calif.) at 370 nm excitation and 420 nm emission wavelengths. […] Equal number of animals were transferred to a black bottom 96 well plate and fluorescence was measured same as above.

[7] = data not shown
[8] = biological target: Keap1-Nrf2 (Homo sapiens, UniProt Q14145); conditions: data not shown
Chain of Keap1-Nrf2 (Q14145 whole entry): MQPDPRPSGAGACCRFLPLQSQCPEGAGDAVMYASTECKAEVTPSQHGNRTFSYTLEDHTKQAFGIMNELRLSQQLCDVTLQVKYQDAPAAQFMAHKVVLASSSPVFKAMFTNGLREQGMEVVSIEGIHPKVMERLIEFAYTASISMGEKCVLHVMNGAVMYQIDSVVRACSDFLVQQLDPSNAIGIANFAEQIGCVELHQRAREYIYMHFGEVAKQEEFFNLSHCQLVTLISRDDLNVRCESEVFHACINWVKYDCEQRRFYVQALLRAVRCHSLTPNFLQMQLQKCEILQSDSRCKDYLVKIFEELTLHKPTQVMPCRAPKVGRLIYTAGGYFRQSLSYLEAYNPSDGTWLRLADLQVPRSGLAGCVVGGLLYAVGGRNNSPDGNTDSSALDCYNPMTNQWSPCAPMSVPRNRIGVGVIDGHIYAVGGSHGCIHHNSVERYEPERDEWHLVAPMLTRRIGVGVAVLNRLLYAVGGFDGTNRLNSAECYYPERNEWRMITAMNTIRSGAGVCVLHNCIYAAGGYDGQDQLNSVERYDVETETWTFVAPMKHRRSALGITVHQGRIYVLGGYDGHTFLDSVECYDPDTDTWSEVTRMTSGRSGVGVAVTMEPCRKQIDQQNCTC

[9] = tested on: NMNAT-1, SIRT1, SIRT5 and COX-IV
Description: Data were normalized to actin. […] The intensity of the bands was normalized to actin. Data are mean±SEM of triplicate measurements.

[10] = tested on: SKN-1/Nrf2-stress response pathway; conditions: in vivo
Description: Treated and untreated populations, four biological replicates each, were then lysed, digested and analyzed by shotgun mass spectrometry for label-free quantification. […] An IPA analysis was performed using proteins with human orthologs.
Worms were lysed in 8M urea, 5% 1 M Tris-HCl pH 8.0 and 1× protease inhibitor cocktail EDTA-free (Thermo Fisher, Waltham Mass.) buffer with the aid of sonication. Lysates were centrifuged at 14000 g for 15 min at 4° C. and proteins in the supernatant were precipitated using cold acetone. Disulfide bonds were reduced and alkylated (by DTT and IAA respectively) before diluting the solution to 1.8 M with 25 mM TRIS-HCL pH 8.0. Proteins were digested overnight at 37° C. with trypsin (Promega, Fitchburg Wis.) in presence of 1 mM CaCl2. Peptides were acidified with TFA and purified using Oasis HLB plates (Waters, UK). A Dionex Ultimate 3000 UHPLC (Thermo) was coupled to an Orbitrap Fusion Lumos mass spectrometer for the separation and analysis of tryptic peptides. […]
LC-MS/MS raw data files were processed using the latest available MaxQuant software (v.1.5.3.30). […] The p-values for all the statistical analysis were calculated using a two-tailed student t-test as used for normally distributed data (we pre-processed intensities by binary logarithm).

[11] = tested on: SH-SY5Y cells
Description: Viability of the cells was measured by Cell Titer Glo after 24 and 48 hours of treatments. […] Values are presented as mean±SDE (*p<0.05, **p<0.01).
SH-SY5Y neuroblastoma cells were treated with doxorubicin (0.2 μM), a cytotoxic compound that depletes the NAD pool of the cells and changes morphological features that mimic neurodegeneration such as loss of neuritis (8, 9).

[12] = tau aggregate cells treated with 0, 10, 20 μM (FIG. 6C), comparator not stated

## NNc1nncc2ccccc12 [Hydralazine]
[1]; SH-SY5Y
  increase of phosphorylation of Nrf2 on serine 40 in the nuclear compartment: 25%
  phosphorylation of cytosolic Nrf2: no change was observed
[1]; SH-SY5Y, 10 μM, 24 h, Western blotting
  increase in Nrf2 level compared to untreated cells: about 20%
[1]; SH-SY5Y, 10, 20 μM
  cytosolic Nrf2 fraction: remained unchanged
  nuclear localization of Nrf2: significantly increased
[2]
  cell viability, NAD, and ATP content of Clone 9: shows improvement in all three aspects
[3]; 4, 8, 12 days
  locomotor performance in skn-1(zu135) animals: did not improve
[3]; N2
  locomotor performance of young (5 days), middle age (10 days), and old (15 days) N2 animals: significant improvement
[3]; N2, 100 μM, 50 μM rotenone 6 h
  locomotor performance of pre-treated animals exposed to rotenone: superior locomotor performance
[4]; 100 μM, 72 hours
  expression of SKN-1 isoforms (B and C) by Western blot: showed increases
[4]; in vivo
  signal intensity and localization of SKN-1::GFP in intestinal nuclei and ASI neurons: significantly increased
[5]; aggregate-positive cells, 20 μM, 1 μM rotenone, 24 h
  Nrf2 expression with hydralazine and rotenone compared to rotenone only: higher
[5]; [12]
  HO-1 expression increase: ~25%
  Nrf2 expression, higher: 1.5 fold
[6]; Nrf2 knockdown
  concentration of O2− ions in aggregate-positive KD cells: No significant change
[6]; aggregate-positive and -negative cells, 24 h
  concentration of superoxide: decreased in a dose-dependent manner
[7]
  pro-oxidant environment (DCFH-DA intensity): does not create a mild pro-oxidant environment
[8]
  direct binding and interruption of Keap1-Nrf2 interaction: ruled out the direct binding hypothesis
[9]; 20 μM, 12 hours
  transcription level of NMNAT-1, SIRT1, SIRT5 (qRT-PCR): increased the transcription level
[9]; 10 and 20 μM
  NMNAT-1, SIRT1, SIRT5 protein (Western blot): up-regulated at the protein level
[9]; after 48 hours
  level of COX-IV: significant increase
[10]
  SKN-1/Nrf2-stress response pathway activation, IPA Z score: 3.317
[11]; 48 hours
  increase of NAD level of untreated cell: 50%
[11]; doxorubicin 0.2 μM
  NAD level in doxorubicin treated cells: significant effect on restoring NAD level
[11]; doxorubicin 0.2 μM, 0, 10, 20 μM, 24 and 48 hours
  protection against doxorubicin induced cell death: protects cells in a dose-dependent manner
